tested on: 843126-344-R-J1-PDC complex spheroid viability; test: Anticancer human tumor 843126-344-R-J1-PDC patient-derived melanoma cell line growth inhibition [POLQ]; details: second compound 0.1 µM; first compound 0.316 µM; hits give low values
Procedure, shortened: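 Growth inhibition in 3D: complex spheroids (tumor PDC, HUVEC, MSC) treated with POLQ inhibitor combinations; where Cmax unknown, highest tested concentration 10 microM, except SN-38 at 1 microM.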
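Also: spheroids exposed to drugs for seven days before readout.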

Row | SMILES | viability, T/C [%]
1 | COc1ccc([C@@H](O)c2cc(-c3ncnc4cc(N5CCOCC5)ccc34)c(F)cc2Cl)nn1 + Nc1ccc(C#CCN(C(=O)Cc2ncc(C(F)(F)F)cc2C(F)(F)F)c2ccc(F)cc2)nn1 | 103

same assay, conditions: second compound 0.1 µM; first compound 1 µM; hits give low values

Row | SMILES | viability, T/C [%]
2 | COc1cc(C2c3cc4c(cc3C(OC3OC5COC(C)OC5C(O)C3O)C3COC(=O)C23)OCO4)cc(OC)c1O (configuration not stated) + Cc1cccc(N(C)C(=O)C2C(O)CCN2c2nc(C)cc(C(F)(F)F)c2C#N)c1 | 68.9
3 | COc1cccc(OCCCN)c1-c1cc(Nc2cnc(C#N)cn2)n[nH]1 + COC1C(OC(N)=O)C(O)C(Oc2ccc3c(O)c(NC(=O)c4ccc(O)c(CC=C(C)C)c4)c(=O)oc3c2C)OC1(C)C | 34.7
4 | CC1COCCN1c1cc(C2(S(C)(=N)=O)CC2)nc(-c2ccnc3[nH]ccc23)n1 (configuration not stated) + COC1C(OC(N)=O)C(O)C(Oc2ccc3c(O)c(NC(=O)c4ccc(O)c(CC=C(C)C)c4)c(=O)oc3c2C)OC1(C)C | 80.6
5 | CC1COCCN1c1cc(-c2ccnn2C)c2ccnc(-c3ccn[nH]3)c2n1 (configuration not stated) + COC1C(OC(N)=O)C(O)C(Oc2ccc3c(O)c(NC(=O)c4ccc(O)c(CC=C(C)C)c4)c(=O)oc3c2C)OC1(C)C | 47.2
6 | COc1ccc([C@@H](O)c2cc(-c3ncnc4cc(N5CCOCC5)ccc34)c(F)cc2Cl)nn1 + Nc1ccc(C#CCN(C(=O)Cc2ncc(C(F)(F)F)cc2C(F)(F)F)c2ccc(F)cc2)nn1 | 82.9

same assay, conditions: second compound 0.1 µM; first compound 3.16 µM; hits give low values

Row | SMILES | viability, T/C [%]
7 | COc1cc(C2c3cc4c(cc3C(OC3OC5COC(C)OC5C(O)C3O)C3COC(=O)C23)OCO4)cc(OC)c1O (configuration not stated) + Cc1cccc(N(C)C(=O)C2C(O)CCN2c2nc(C)cc(C(F)(F)F)c2C#N)c1 | 72.8
8 | CC1COCCN1c1cc(C2(S(C)(=N)=O)CC2)nc(-c2ccnc3[nH]ccc23)n1 (configuration not stated) + COC1C(OC(N)=O)C(O)C(Oc2ccc3c(O)c(NC(=O)c4ccc(O)c(CC=C(C)C)c4)c(=O)oc3c2C)OC1(C)C | 65.7
9 | CC1COCCN1c1cc(-c2ccnn2C)c2ccnc(-c3ccn[nH]3)c2n1 (configuration not stated) + COC1C(OC(N)=O)C(O)C(Oc2ccc3c(O)c(NC(=O)c4ccc(O)c(CC=C(C)C)c4)c(=O)oc3c2C)OC1(C)C | 33.4
10 | COc1ccc([C@@H](O)c2cc(-c3ncnc4cc(N5CCOCC5)ccc34)c(F)cc2Cl)nn1 + Nc1ccc(C#CCN(C(=O)Cc2ncc(C(F)(F)F)cc2C(F)(F)F)c2ccc(F)cc2)nn1 | 96

same assay, conditions: second compound 0.1 µM; first compound 10 µM; hits give low values

Row | SMILES | viability, T/C [%]
11 | COc1cc(C2c3cc4c(cc3C(OC3OC5COC(C)OC5C(O)C3O)C3COC(=O)C23)OCO4)cc(OC)c1O (configuration not stated) + Cc1cccc(N(C)C(=O)C2C(O)CCN2c2nc(C)cc(C(F)(F)F)c2C#N)c1 | 45.5
12 | CC1COCCN1c1cc(C2(S(C)(=N)=O)CC2)nc(-c2ccnc3[nH]ccc23)n1 (configuration not stated) + COC1C(OC(N)=O)C(O)C(Oc2ccc3c(O)c(NC(=O)c4ccc(O)c(CC=C(C)C)c4)c(=O)oc3c2C)OC1(C)C | 55.3
13 | CC1COCCN1c1cc(-c2ccnn2C)c2ccnc(-c3ccn[nH]3)c2n1 (configuration not stated) + COC1C(OC(N)=O)C(O)C(Oc2ccc3c(O)c(NC(=O)c4ccc(O)c(CC=C(C)C)c4)c(=O)oc3c2C)OC1(C)C | 26.4
14 | COc1ccc([C@@H](O)c2cc(-c3ncnc4cc(N5CCOCC5)ccc34)c(F)cc2Cl)nn1 + Nc1ccc(C#CCN(C(=O)Cc2ncc(C(F)(F)F)cc2C(F)(F)F)c2ccc(F)cc2)nn1 | 68.1

same assay, conditions: second compound 0.316 µM; first compound 0.000316 µM; hits give low values

Row | SMILES | viability, T/C [%]
15 | Cn1ncnc1[C@H]1c2n[nH]c(=O)c3cc(F)cc(c23)N[C@@H]1c1ccc(F)cc1 + COC1C(OC(N)=O)C(O)C(Oc2ccc3c(O)c(NC(=O)c4ccc(O)c(CC=C(C)C)c4)c(=O)oc3c2C)OC1(C)C | 90.1

same assay, conditions: second compound 0.316 µM; first compound 0.001 µM; hits give low values

Row | SMILES | viability, T/C [%]
16 | Cn1ncnc1[C@H]1c2n[nH]c(=O)c3cc(F)cc(c23)N[C@@H]1c1ccc(F)cc1 + COC1C(OC(N)=O)C(O)C(Oc2ccc3c(O)c(NC(=O)c4ccc(O)c(CC=C(C)C)c4)c(=O)oc3c2C)OC1(C)C | 109

same assay, conditions: second compound 0.316 µM; first compound 0.00316 µM; hits give low values

Row | SMILES | viability, T/C [%]
17 | COc1cccc(OCCCN)c1-c1cc(Nc2cnc(C#N)cn2)n[nH]1 + COC1C(OC(N)=O)C(O)C(Oc2ccc3c(O)c(NC(=O)c4ccc(O)c(CC=C(C)C)c4)c(=O)oc3c2C)OC1(C)C | 79.9
18 | Cn1ncnc1[C@H]1c2n[nH]c(=O)c3cc(F)cc(c23)N[C@@H]1c1ccc(F)cc1 + COC1C(OC(N)=O)C(O)C(Oc2ccc3c(O)c(NC(=O)c4ccc(O)c(CC=C(C)C)c4)c(=O)oc3c2C)OC1(C)C | 81.2

same assay, conditions: second compound 0.316 µM; first compound 0.01 µM; hits give low values

Row | SMILES | viability, T/C [%]
19 | COc1cccc(OCCCN)c1-c1cc(Nc2cnc(C#N)cn2)n[nH]1 + COC1C(OC(N)=O)C(O)C(Oc2ccc3c(O)c(NC(=O)c4ccc(O)c(CC=C(C)C)c4)c(=O)oc3c2C)OC1(C)C | 76.8
20 | Cn1ncnc1[C@H]1c2n[nH]c(=O)c3cc(F)cc(c23)N[C@@H]1c1ccc(F)cc1 + COC1C(OC(N)=O)C(O)C(Oc2ccc3c(O)c(NC(=O)c4ccc(O)c(CC=C(C)C)c4)c(=O)oc3c2C)OC1(C)C | 102

same assay, conditions: second compound 0.316 µM; first compound 0.0316 µM; hits give low values

Row | SMILES | viability, T/C [%]
21 | COc1cc(C2c3cc4c(cc3C(OC3OC5COC(C)OC5C(O)C3O)C3COC(=O)C23)OCO4)cc(OC)c1O (configuration not stated) + Cc1cccc(N(C)C(=O)C2C(O)CCN2c2nc(C)cc(C(F)(F)F)c2C#N)c1 | 82.1
22 | COc1cccc(OCCCN)c1-c1cc(Nc2cnc(C#N)cn2)n[nH]1 + COC1C(OC(N)=O)C(O)C(Oc2ccc3c(O)c(NC(=O)c4ccc(O)c(CC=C(C)C)c4)c(=O)oc3c2C)OC1(C)C | 65.3
23 | CC1COCCN1c1cc(C2(S(C)(=N)=O)CC2)nc(-c2ccnc3[nH]ccc23)n1 (configuration not stated) + COC1C(OC(N)=O)C(O)C(Oc2ccc3c(O)c(NC(=O)c4ccc(O)c(CC=C(C)C)c4)c(=O)oc3c2C)OC1(C)C | 103
24 | Cn1ncnc1[C@H]1c2n[nH]c(=O)c3cc(F)cc(c23)N[C@@H]1c1ccc(F)cc1 + COC1C(OC(N)=O)C(O)C(Oc2ccc3c(O)c(NC(=O)c4ccc(O)c(CC=C(C)C)c4)c(=O)oc3c2C)OC1(C)C | 90.3
25 | CC1COCCN1c1cc(-c2ccnn2C)c2ccnc(-c3ccn[nH]3)c2n1 (configuration not stated) + COC1C(OC(N)=O)C(O)C(Oc2ccc3c(O)c(NC(=O)c4ccc(O)c(CC=C(C)C)c4)c(=O)oc3c2C)OC1(C)C | 92.4
26 | COc1ccc([C@@H](O)c2cc(-c3ncnc4cc(N5CCOCC5)ccc34)c(F)cc2Cl)nn1 + Nc1ccc(C#CCN(C(=O)Cc2ncc(C(F)(F)F)cc2C(F)(F)F)c2ccc(F)cc2)nn1 | 86

same assay, conditions: second compound 0.316 µM; first compound 0.1 µM; hits give low values

Row | SMILES | viability, T/C [%]
27 | COc1cc(C2c3cc4c(cc3C(OC3OC5COC(C)OC5C(O)C3O)C3COC(=O)C23)OCO4)cc(OC)c1O (configuration not stated) + Cc1cccc(N(C)C(=O)C2C(O)CCN2c2nc(C)cc(C(F)(F)F)c2C#N)c1 | 84.1
28 | COc1cccc(OCCCN)c1-c1cc(Nc2cnc(C#N)cn2)n[nH]1 + COC1C(OC(N)=O)C(O)C(Oc2ccc3c(O)c(NC(=O)c4ccc(O)c(CC=C(C)C)c4)c(=O)oc3c2C)OC1(C)C | 54.9
29 | CC1COCCN1c1cc(C2(S(C)(=N)=O)CC2)nc(-c2ccnc3[nH]ccc23)n1 (configuration not stated) + COC1C(OC(N)=O)C(O)C(Oc2ccc3c(O)c(NC(=O)c4ccc(O)c(CC=C(C)C)c4)c(=O)oc3c2C)OC1(C)C | 79.8
30 | Cn1ncnc1[C@H]1c2n[nH]c(=O)c3cc(F)cc(c23)N[C@@H]1c1ccc(F)cc1 + COC1C(OC(N)=O)C(O)C(Oc2ccc3c(O)c(NC(=O)c4ccc(O)c(CC=C(C)C)c4)c(=O)oc3c2C)OC1(C)C | 94.2
31 | CC1COCCN1c1cc(-c2ccnn2C)c2ccnc(-c3ccn[nH]3)c2n1 (configuration not stated) + COC1C(OC(N)=O)C(O)C(Oc2ccc3c(O)c(NC(=O)c4ccc(O)c(CC=C(C)C)c4)c(=O)oc3c2C)OC1(C)C | 73.7
32 | COc1ccc([C@@H](O)c2cc(-c3ncnc4cc(N5CCOCC5)ccc34)c(F)cc2Cl)nn1 + Nc1ccc(C#CCN(C(=O)Cc2ncc(C(F)(F)F)cc2C(F)(F)F)c2ccc(F)cc2)nn1 | 90.3

Reference: PubChem BioAssay AID1963837 (Molecular Pharmacology Branch, DTP, NCI, 2024)
